Assay: molar heat capacity at constant pressure
Settings: 101.33 kPa, Crystal

O[C@H]1[C@H](O)[C@@H](O)[C@H](O)[C@@H](O)[C@H]1O [cis-1,2,3,5-trans-4,6-cyclohexanehexol]
molar heat capacity at constant pressure [J/K/mol]
Settings	Small sample (50 mg) DSC	relaxation calorimetry
1 K	–	0.00189
1.926 K	–	0.009609
2 K	–	0.0108
2.127 K	–	0.01292
2.354 K	–	0.01758
2.61 K	–	0.02281
2.904 K	–	0.03148
3 K	–	0.03479
3.219 K	–	0.04281
3.569 K	–	0.0586
3.959 K	–	0.08072
4 K	–	0.08367
4.391 K	–	0.1121
4.872 K	–	0.1562
5 K	–	0.1693
5.405 K	–	0.2182
5.998 K	–	0.3056
6 K	–	0.3048
6.654 K	–	0.4273
7 K	–	0.5031
7.388 K	–	0.5992
8 K	–	0.7731
8.198 K	–	0.8347
9 K	–	1.113
9.101 K	–	1.15
10 K	–	1.523
10.15 K	–	1.591
11.25 K	–	2.131
12.48 K	–	2.827
13.85 K	–	3.674
15 K	–	4.447
15.39 K	–	4.714
17.07 K	–	5.945
18.96 K	–	7.393
20 K	–	8.193
21.04 K	–	8.992
23.37 K	–	10.83
25 K	–	12.09
25.95 K	–	12.77
28.81 K	–	14.98
30 K	–	15.9
32 K	–	17.42
35 K	–	19.73
35.5 K	–	20.13
39.37 K	–	23.3
40 K	–	23.68
43.71 K	–	26.66
45 K	–	27.69
48.5 K	–	30.26
50 K	–	31.58
53.84 K	–	34.36
55 K	–	35.27
59.75 K	–	39.03
60 K	–	39.12
65 K	–	43.04
66.32 K	–	44.21
70 K	–	47.02
73.64 K	–	49.9
75 K	–	51.04
80 K	–	55.09
81.73 K	–	56.7
85 K	–	59.15
90 K	–	63.21
90.71 K	–	63.72
95 K	–	67.25
100 K	–	71.28
100.66 K	–	71.12
110 K	–	79.22
110.79 K	–	79.63
120 K	–	87.03
120.83 K	–	87.98
130 K	–	94.69
130.89 K	–	95.77
140 K	–	102.22
141.02 K	–	103.28
150 K	–	109.64
151.12 K	–	110.61
160 K	–	116.97
161.24 K	–	117.92
170 K	–	124.22
171.29 K	–	125.13
180 K	–	131.43
181.39 K	–	132.46
188.15 K	132.1	–
189.15 K	133.01	–
190 K	–	138.61
190.15 K	134.04	–
191.15 K	134.87	–
191.48 K	–	139.61
192.15 K	135.65	–
193.15 K	136.44	–
194.15 K	137.52	–
195.15 K	138.44	–
196.15 K	139.45	–
197.15 K	140.42	–
198.15 K	141.25	–
199.15 K	142.04	–
200 K	–	145.78
200.15 K	142.99	–
201.15 K	143.81	–
201.58 K	–	146.36
202.15 K	144.76	–
203.15 K	145.49	–
204.15 K	146.25	–
205.15 K	147.12	–
206.15 K	147.9	–
207.15 K	148.76	–
208.15 K	149.37	–
209.15 K	150.17	–
210 K	–	152.96
210.15 K	150.93	–
211.15 K	151.82	–
211.7 K	–	153.74
212.15 K	152.59	–
213.15 K	153.21	–
214.15 K	154.05	–
215.15 K	154.79	–
216.15 K	155.5	–
217.15 K	156.37	–
218.15 K	157.24	–
219.15 K	158	–
220 K	–	160.15
220.15 K	158.66	–
221.15 K	159.51	–
221.79 K	–	161.31
222.15 K	160.36	–
223.15 K	161.11	–
224.15 K	161.84	–
225.15 K	162.58	–
226.15 K	163.3	–
227.15 K	164.03	–
228.15 K	164.76	–
229.15 K	165.48	–
230 K	–	167.37
230.15 K	166.09	–
231.15 K	166.87	–
231.88 K	–	168.69
232.15 K	167.66	–
233.15 K	168.47	–
234.15 K	169.23	–
235.15 K	169.98	–
236.15 K	170.76	–
237.15 K	171.54	–
238.15 K	172.36	–
239.15 K	173.06	–
240 K	–	174.63
240.15 K	173.81	–
241.15 K	174.61	–
241.96 K	–	176.25
242.15 K	175.4	–
243.15 K	176.08	–
244.15 K	176.84	–
245.15 K	177.49	–
246.15 K	178.19	–
247.15 K	178.89	–
248.15 K	179.65	–
249.15 K	180.32	–
250 K	–	181.94
250.15 K	181.03	–
251.15 K	181.9	–
251.99 K	–	183.44
252.15 K	182.55	–
253.15 K	183.36	–
254.15 K	184.08	–
255.15 K	184.96	–
256.15 K	185.78	–
257.15 K	186.45	–
258.15 K	187.25	–
259.15 K	188.05	–
260 K	–	189.3
260.15 K	188.81	–
261.15 K	189.58	–
262.11 K	–	191.23
262.15 K	190.24	–
263.15 K	191.02	–
264.15 K	191.84	–
265.15 K	192.51	–
266.15 K	193.18	–
267.15 K	194.11	–
268.15 K	194.88	–
269.15 K	195.58	–
270 K	–	196.73
270.15 K	196.44	–
271.15 K	197.16	–
272.15 K	197.91	–
272.17 K	–	198.87
273.15 K	198.7	199.08
274.15 K	199.42	–
275.15 K	200.19	–
276.15 K	201.09	–
277.15 K	201.63	–
278.15 K	202.4	–
279.15 K	203.19	–
280 K	–	204.22
280.15 K	203.91	–
281.15 K	204.75	–
282.15 K	205.45	–
282.18 K	–	206.06
283.15 K	206.13	–
284.15 K	206.78	–
285.15 K	207.67	–
286.15 K	208.29	–
287.15 K	208.96	–
288.15 K	209.73	–
289.15 K	210.44	–
290 K	–	211.78
290.15 K	211.29	–
291.15 K	212.09	–
292.15 K	212.8	–
292.29 K	–	213.34
293.15 K	213.54	–
294.15 K	214.44	–
295.15 K	215.31	–
296.15 K	216.01	–
297.15 K	216.77	–
298.15 K	217.6	218
299.15 K	218.39	–
300 K	–	219.42
300.15 K	219.12	–
301.15 K	219.99	–
302.15 K	220.81	–
302.4 K	–	220.86
303.15 K	221.72	–
304.15 K	222.56	–
305 K	223.54	–
305.15 K	223.48	–
306.15 K	224.53	–
307.15 K	225.41	–
308.15 K	226.47	–
309.15 K	227.45	–
310 K	228.25	–
310.15 K	228.42	–
311.15 K	229.32	–
312.15 K	230.3	–
313.15 K	231.18	–
314.15 K	232.03	–
315 K	232.85	–
